From patent US4248870A, “Maytansinoids and use” (Takeda Chemical Industries, Ltd., priority 1979, dated 1981)
Converted amounts (≈) assume the structure as drawn.

What was measured:
[1] = test system: Tetrahymena pyriformis W; test: Antiprotozoal activity, growth inhibition by serial dilution method; assay type: cell-based; conditions: 28° C., 44 to 48 hours, pH 7.0, serial dilution method
Description: Antiprotozoal activity of compound (I) was assayed with Tetrahymena pyriformis W as the test organism and a medium composed of 20 g tryptose-peptone (Difco Co.), 1 g yeast extract, 2 glucose, 1000 ml distilled water, 10 ml 1 M phosphate buffer (pH 7.0) as the assay medium. The microorganism was incubated at 28° C. for 44 to 48 hours and the growth inhibitory activity of compound (I) was assayed by the serial dilution method.

[2] = test system: melanoma B-16; test: Therapeutic test in mice, melanoma B-16 transplanted intraperitoneally (life span prolongation); assay type: in vivo; conditions: intraperitoneally once daily for 9 consecutive days
Description: (§1) Therapeutic tests were carried out in mice according to NCI-protocols 1,200 and 1,300, Cancer Chemother, Reports, Part 3, 1972, Vol. 3, No. 2, in which leukemia P-388 and melanoma B-16 tumor cells had been intraperitoneally transplanted, compound (I) being administered intraperitoneally once daily for 9 consecutive days.

[3] = test system: leukemia P-388; test: Therapeutic test in mice, leukemia P-388 transplanted intraperitoneally (life span prolongation); assay type: in vivo; conditions: intraperitoneally once daily for 9 consecutive days
Description: as §1

`COc1cc2cc(c1Cl)N(C)C(=O)CC(OC(=O)c1ccco1)C1(C)OC1C(C)C1CC(O)(NC(=O)O1)C(OC)C=CC=C(C)C2` (centres unmarked) [Maytansinol 3-(2-furane)carboxylate, Maytansinol 3-(2-furan)carboxylate] was tested. Which MIC [1] did it give?
Its MIC is at least 4 µg/mL.

`COc1cc2cc(c1Cl)N(C)C(=O)CC(OC(=O)c1cccs1)C1(C)OC1C(C)C1CC(O)(NC(=O)O1)C(OC)C=CC=C(C)C2` (centres unmarked) [Maytansinol 3-(2-thiophene)carboxylate] was tested. Which MIC [1] did it give?
The MIC was at least 4 µg/mL.

For `COc1cc2cc(c1Cl)N(C)C(=O)CC(OC(=O)CCc1ccccc1)C1(C)OC1C(C)C1CC(O)(NC(=O)O1)C(OC)C=CC=C(C)C2` (centres unmarked) [Maytansinol 3-(3-phenyl)propionate, Maytansinol 3-phenylpropionate], which MIC [1] is on record?
The MIC was 2 to 4 µg/mL (≈ 2.87 to 5.74 µM).

With `COc1cc2cc(c1Cl)N(C)C(=O)CC(OC(=O)c1ccc(Cl)cc1)C1(C)OC1C(C)C1CC(O)(NC(=O)O1)C(OC)C=CC=C(C)C2` (centres unmarked) [Maytansinol 3-(p-chloro)benzoate, Maytansinol 3-p-chlorobenzoate] as the compound, how does the MIC [1] read?
Its MIC is at least 4 µg/mL.

Which MIC [1] does the source give for `COc1cc2cc(c1Cl)N(C)C(=O)CC(OC(=O)c1ccccc1)C1(C)OC1C(C)C1CC(O)(NC(=O)O1)C(OC)C=CC=C(C)C2` (centres unmarked) [Maytansinol 3-benzoate] here?
Its MIC is 4 µg/mL (≈ 5.98 µM).

With `COc1cc2cc(c1Cl)N(C)C(=O)CC(OC(=O)C1CCCCC1)C1(C)OC1C(C)C1CC(O)(NC(=O)O1)C(OC)C=CC=C(C)C2` (centres unmarked) [Maytansinol 3-cyclohexane carboxylate, Maytansinol 3-cyclohexanecarboxylate] as the compound, how does the MIC [1] read?
The MIC was under 2 µg/mL.

What about the “Antitumor activities B-16 (T/C %)” value ([2]; 25 μg/kg) of the same compound?
The value was 193%.

And the “Antitumor activities B-16 (T/C %)” value ([2]; 50 μg/kg)?
Its value is 188%.

And the “Antitumor activities B-16 (T/C %)” value ([2]; 100 μg/kg)?
Its value is 193%.

Which MIC [1] does the source give for `COc1cc2cc(c1Cl)N(C)C(=O)CC(OC(=O)C1CC1)C1(C)OC1C(C)C1CC(O)(NC(=O)O1)C(OC)C=CC=C(C)C2` (centres unmarked) [Maytansinol 3-cyclopropane carboxylate, Maytansinol 3-cyclopropanecarboxylate] here?
The MIC was 4 µg/mL (≈ 6.32 µM).

What does the source list for `COc1cc2cc(c1Cl)N(C)C(=O)CC(OC(=O)Cc1ccccc1)C1(C)OC1C(C)C1CC(O)(NC(=O)O1)C(OC)C=CC=C(C)C2` (centres unmarked) [Maytansinol 3-phenylacetate]?
MIC [1]: < 2 µg/mL; Antitumor activities B-16 (T/C %) ([2]; 12.5 μg/kg): 207%; Antitumor activities B-16 (T/C %) ([2]; 25 μg/kg): 230%; Antitumor activities P-388 (T/C %) ([3]; 12.5 μg/kg): 164%; Antitumor activities P-388 (T/C %) ([3]; 25 μg/kg): 185%

With `COc1cc2cc(c1Cl)N(C)C(=O)CC(OC(=O)c1ccccn1)C1(C)OC1C(C)C1CC(O)(NC(=O)O1)C(OC)C=CC=C(C)C2` (stereo not drawn) [Maytansinol 3-α-picolinate, Maytansinol 3-picolinate] as the compound, how does the MIC [1] read?
Its MIC is at least 4 µg/mL.

And the “Antitumor activities B-16 (T/C %)” value ([2]; 100 μg/kg)?
Its value is 176%.

What about the “Antitumor activities B-16 (T/C %)” value ([2]; 200 μg/kg) of the same compound?
Its value is 173%.

And the “Antitumor activities P-388 (T/C %)” value ([3]; 50 μg/kg)?
Its value is 193%.

What about the “Antitumor activities P-388 (T/C %)” value ([3]; 100 μg/kg) of the same compound?
The value was 185%.
